Assay results: the supplement of paper PMC10307832

Each cell line was assayed with Cn1nnc2c(C(N)=O)ncn2c1=O [Temozolomide] + Cc1nc(Nc2ncc(C(=O)Nc3c(C)cccc3Cl)s2)cc(N2CCN(CCO)CC2)n1 [Dasatinib] (partner 0.075 µM) (assay: relative viability (nuclei count vs DMSO), 5 days (fraction); higher = more cells survive). Settings: first compound 0.2 µM.
How it was run: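 Cells from lung cancer lines were seeded into 1536-well plates and, one day later, dosed by pin tool. Treatments were either a single drug or a fixed dose of an anchor drug with five library-drug doses (not always all listed) in √10 steps. After 5 days, nuclei were stained in a one-step fixation (final 0.05% Triton X-100, 1% formaldehyde, 1 ug/ml Hoechst) and counted on 4× images, and relative viability is the treated-to-vehicle nuclei ratio, as the median of duplicate plates.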

Point of comparison: NCI-H1944, relative viability 0.218. Against it:
- LCLC-97TM1 — higher, 0.76
- LCLC-103H — higher, 0.524
- LK-2 — higher, 0.266
- LOU-NH91 — higher, 0.444
- NCI-H358 — lower, 0.13
- NCI-H522 — higher, 0.877
- NCI-H727 — higher, 0.332
- NCI-H1395 — higher, 0.429
- NCI-H1563 — higher, 0.454
- NCI-H1792 — higher, 0.498
- NCI-H2342 — higher, 0.311
- SK-MES-1 — higher, 0.289
- SW 900 — higher, 0.644

Same assay, conditions: first compound 0.6325 µM

Point of comparison: HCC-366, relative viability 0.688. Against it:
- 201T — lower, 0.523
- A-427 — lower, 0.669
- ABC-1 — lower, 0.558
- BEN — lower, 0.356
- CAL-12T — lower, 0.455
- COR-L23 — lower, 0.516
- COR-L 105 — lower, 0.358
- ChaGo-K-1 — lower, 0.603
- EKVX — lower, 0.575
- EMC-BAC-2 — lower, 0.368
- EPLC-272H — lower, 0.411
- H3255 — lower, 0.406
- HARA — lower, 0.301
- HCC-15 — higher, 0.699
- HCC-78 — lower, 0.456
- HCC-827 — lower, 0.343
- HOP-62 — higher, 0.759
- LC-2-ad — lower, 0.662
- LCLC-97TM1 — higher, 0.807
- LCLC-103H — lower, 0.567
- LK-2 — lower, 0.323
- LOU-NH91 — lower, 0.551
- NCI-H358 — lower, 0.151
- NCI-H522 — higher, 0.729
- NCI-H727 — lower, 0.406
- NCI-H1395 — lower, 0.393
- NCI-H1563 — lower, 0.481
- NCI-H1623 — lower, 0.555
- NCI-H1792 — higher, 0.747
- NCI-H1793 — lower, 0.407
- NCI-H1944 — lower, 0.196
- NCI-H2170 — lower, 0.677
- NCI-H2342 — lower, 0.301
- SK-MES-1 — lower, 0.34
- SW 900 — lower, 0.561

Same assay, conditions: first compound 2 µM

Point of comparison: HCC-78, relative viability 0.418. Against it:
- 201T — higher, 0.539
- A-427 — higher, 0.762
- ABC-1 — higher, 0.607
- BEN — lower, 0.31
- CAL-12T — higher, 0.427
- COR-L23 — higher, 0.542
- COR-L 105 — higher, 0.481
- ChaGo-K-1 — higher, 0.781
- EKVX — higher, 0.55
- EMC-BAC-2 — lower, 0.368
- EPLC-272H — lower, 0.413
- H3255 — lower, 0.283
- HARA — lower, 0.309
- HCC-15 — higher, 0.625
- HCC-366 — higher, 0.655
- HCC-827 — lower, 0.299
- HOP-62 — higher, 0.73
- LC-2-ad — higher, 0.836
- LCLC-97TM1 — higher, 0.934
- LCLC-103H — higher, 0.548
- LK-2 — lower, 0.384
- LOU-NH91 — higher, 0.589
- NCI-H358 — lower, 0.17
- NCI-H522 — higher, 0.932
- NCI-H727 — lower, 0.334
- NCI-H1395 — higher, 0.491
- NCI-H1563 — higher, 0.453
- NCI-H1623 — higher, 0.455
- NCI-H1792 — higher, 0.73
- NCI-H1793 — lower, 0.378
- NCI-H1944 — lower, 0.223
- NCI-H2170 — higher, 0.655
- NCI-H2342 — lower, 0.304
- SK-MES-1 — lower, 0.412
- SW 900 — lower, 0.381

Same assay, conditions: first compound 6.325 µM

Point of comparison: NCI-H1792, relative viability 0.778. Against it:
- 201T — lower, 0.57
- A-427 — lower, 0.525
- ABC-1 — lower, 0.49
- BEN — lower, 0.257
- CAL-12T — lower, 0.381
- COR-L23 — lower, 0.461
- COR-L 105 — lower, 0.313
- ChaGo-K-1 — lower, 0.552
- EKVX — higher, 0.782
- EMC-BAC-2 — lower, 0.316
- EPLC-272H — lower, 0.337
- H3255 — lower, 0.263
- HARA — lower, 0.29
- HCC-15 — lower, 0.627
- HCC-78 — lower, 0.391
- HCC-366 — lower, 0.682
- HCC-827 — lower, 0.326
- HOP-62 — lower, 0.609
- LC-2-ad — lower, 0.471
- LCLC-97TM1 — higher, 0.813
- LCLC-103H — lower, 0.565
- LK-2 — lower, 0.246
- LOU-NH91 — lower, 0.572
- NCI-H358 — lower, 0.142
- NCI-H522 — lower, 0.703
- NCI-H727 — lower, 0.273
- NCI-H1395 — lower, 0.402
- NCI-H1563 — lower, 0.366
- NCI-H1623 — lower, 0.474
- NCI-H1793 — lower, 0.28
- NCI-H1944 — lower, 0.213
- NCI-H2170 — lower, 0.503
- NCI-H2342 — lower, 0.312
- SK-MES-1 — lower, 0.374
- SW 900 — lower, 0.541

Same assay, conditions: first compound 20 µM

Point of comparison: NCI-H1792, relative viability 0.867. Against it:
- 201T — lower, 0.565
- A-427 — lower, 0.356
- ABC-1 — lower, 0.586
- BEN — lower, 0.263
- CAL-12T — lower, 0.346
- COR-L23 — lower, 0.6
- COR-L 105 — lower, 0.188
- ChaGo-K-1 — lower, 0.579
- EKVX — lower, 0.352
- EMC-BAC-2 — lower, 0.325
- EPLC-272H — lower, 0.267
- H3255 — lower, 0.202
- HARA — lower, 0.23
- HCC-15 — lower, 0.642
- HCC-78 — lower, 0.365
- HCC-366 — lower, 0.652
- HCC-827 — lower, 0.149
- HOP-62 — lower, 0.711
- LC-2-ad — lower, 0.472
- LCLC-97TM1 — lower, 0.803
- LCLC-103H — lower, 0.471
- LK-2 — lower, 0.27
- LOU-NH91 — lower, 0.448
- NCI-H358 — lower, 0.135
- NCI-H522 — higher, 0.935
- NCI-H727 — lower, 0.299
- NCI-H1395 — lower, 0.392
- NCI-H1563 — lower, 0.447
- NCI-H1623 — lower, 0.355
- NCI-H1793 — lower, 0.352
- NCI-H1944 — lower, 0.192
- NCI-H2170 — lower, 0.259
- NCI-H2342 — lower, 0.297
- SK-MES-1 — lower, 0.228
- SW 900 — lower, 0.553
